Assay results reported in patent publication US9115127B2 (AMGEN INC., priority 2010, dated 2015).

Target: T1, wild-type human ALK (cytoplasmic domain, amino acids 1058-1620, N-terminal GST fusion) (Homo sapiens, UniProt Q9UM73)
T1 construct: The cytoplasmic domain (amino acids 1058-1620) of wild-type human ALK; GST (N); made in house; host or cells: SF9 insect cells
Experiment: ALK Inhibition in Enzyme Assay (Lance TR-FRET kinase assay)
Type: biochemical
Conditions: not given
Summary of the method: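 Purified enzyme phosphorylated a biotinylated peptide substrate for 90 minutes at room temperature. Reactions were stopped with 20 mM EDTA in 50 mM Tris (pH 7.5), 100 mM NaCl, 0.05% BSA, 0.1% Tween-20. Phosphopeptide was detected by TR-FRET with SA-APC and Eu-W1024 anti-phosphotyrosine antibody PT66, excitation 320 nm.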

T1 sequence (Q9UM73 1058-1620): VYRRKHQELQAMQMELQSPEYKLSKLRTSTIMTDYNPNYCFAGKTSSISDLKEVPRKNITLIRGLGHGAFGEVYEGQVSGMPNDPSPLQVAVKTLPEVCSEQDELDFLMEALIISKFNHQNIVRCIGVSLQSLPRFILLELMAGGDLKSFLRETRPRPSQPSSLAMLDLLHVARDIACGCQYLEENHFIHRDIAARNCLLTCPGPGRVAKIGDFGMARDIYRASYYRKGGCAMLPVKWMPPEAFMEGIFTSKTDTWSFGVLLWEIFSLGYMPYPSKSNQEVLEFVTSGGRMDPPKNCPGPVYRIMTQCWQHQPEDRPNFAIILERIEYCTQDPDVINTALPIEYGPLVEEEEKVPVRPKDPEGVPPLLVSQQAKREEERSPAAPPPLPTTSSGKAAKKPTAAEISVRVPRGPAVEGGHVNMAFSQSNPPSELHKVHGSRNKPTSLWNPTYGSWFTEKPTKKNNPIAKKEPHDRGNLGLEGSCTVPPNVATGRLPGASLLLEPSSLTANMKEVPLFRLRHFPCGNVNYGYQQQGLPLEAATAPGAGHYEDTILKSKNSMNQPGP

Row | IC50 [nM] | SMILES
1 | 50 to 100 | CC(C)NC(=O)[C@H]1CC[C@@H](n2/c(=N/C(=O)c3ccc(F)c(C(F)(F)F)c3)[nH]c3cnc(OCCN4CCCCC4)cc32)CC1 [Example 114, (E)-4-Fluoro-N-(1-(cis-4-(isopropylcarbamoyl)cyclohexyl)-6-(2-(piperidin-1-yl)ethoxy)-1H-imidazo[4,5-c]pyridin-2(3H)-ylidene)-3-(trifluoromethyl)benzamide]
2 | < 50 | CC(C)NC(=O)[C@H]1CC[C@@H](n2/c(=N/C(=O)c3cc(F)cc(Cl)c3)[nH]c3cnc(OCCN4CCCCC4)cc32)CC1 [Example 115, (E)-3-Chloro-5-fluoro-N-(1-(cis-4-(isopropylcarbamoyl)cyclohexyl)-6-(2-(piperidin-1-yl)ethoxy)-1H-imidazo[4,5-c]pyridin-2 (3H)-ylidene)benzamide]
3 | 50 to 100 | COc1cccc(C(=O)/N=c2\[nH]c3cnc(OCCN4CCCCC4)cc3n2[C@H]2CC[C@@H](C(=O)NC(C)C)CC2)c1 [Example 116, (E)-N-(1-(cis-4-(Isopropylcarbamoyl)cyclohexyl)-6-(2-(piperidin-1-yl)ethoxy)-1H-imidazo[4,5-c]pyridin-2(3H)-ylidene)-3-methoxybenzamide]
4 | 50 to 100 | COc1cc(F)cc(C(=O)/N=c2\[nH]c3cnc(OCCN4CCCCC4)cc3n2[C@H]2CC[C@@H](C(=O)NC(C)C)CC2)c1 [Example 117, (E)-3-Fluoro-N-(1-(cis-4-(isopropylcarbamoyl)cyclohexyl)-6-(2-(piperidin-1-yl)ethoxy)-1H-imidazo[4,5-c]pyridin-2(3H)-ylidene)-5-methoxybenzamide]
5 | < 50 | CC(C)NC(=O)[C@H]1CC[C@@H](n2/c(=N/C(=O)c3cccc(Cl)c3)[nH]c3cnc(OCCN4CCCCC4)cc32)CC1 [Example 119, (E)-3-Chloro-N-(1-(cis-4-(isopropylcarbamoyl)cyclohexyl)-6-(2-(piperidin-1-yl)ethoxy)-1H-imidazo[4,5-c]pyridin-2(3H)-ylidene)benzamide]
6 | 100 to 1000 | CC(C)NC(=O)[C@H]1CC[C@@H](n2/c(=N/C(=O)c3ccc(S(C)(=O)=O)cc3)[nH]c3cnc(OCCN4CCCCC4)cc32)CC1 [Example 120, (E)-N-(1-(cis-4-(Isopropylcarbamoyl)cyclohexyl)-6-(2-(piperidin-1-yl)ethoxy)-1H-imidazo[4,5-c]pyridin-2(3H)-ylidene)-4-(methylsulfonyl)benzamide]
7 | 50 to 100 | CC(C)NC(=O)[C@H]1CC[C@@H](n2/c(=N/C(=O)c3cccc(OC(F)(F)F)c3)[nH]c3cnc(OCCN4CCCCC4)cc32)CC1 [Example 121, (E)-N-(1-(cis-4-(Isopropylcarbamoyl)cyclohexyl)-6-(2-(piperidin-1-yl)ethoxy)-1H-imidazo[4,5-c]pyridin-2(3H)-ylidene)-3-(trifluoromethoxy)benzamide]
8 | 100 to 1000 | CC(C)NC(=O)[C@H]1CC[C@@H](n2/c(=N/C(=O)c3ccc(C(N)=O)cc3)[nH]c3cnc(OCCN4CCCCC4)cc32)CC1 [Example 122, (E)-N-1-(1-(cis-4-(Isopropylcarbamoyl)cyclohexyl)-6-(2-(piperidin-1-yl)ethoxy)-1H-imidazo[4,5-c]pyridin-2(3H)-ylidene)terephthalamide]
9 | < 50 | N#Cc1ccc(C(=O)/N=c2\[nH]c3cnc(OCCN4CCCCC4)cc3n2[C@H]2CC[C@@H](C(=O)N3CCNCC3)CC2)cc1 [Example 123, (E)-4-Cyano-N-(1-(cis-4-(piperazine-1-carbonyl)cyclohexyl)-6-(2-(piperidin-1-yl)ethoxy)-1H-imidazo[4,5-c]pyridin-2(3H)-ylidene)benzamide]
10 | < 50 | CC(C)NC(=O)[C@H]1CC[C@@H](n2/c(=N/C(=O)c3cccc(F)c3)[nH]c3cnc(N4CCC(C(C)(C)O)CC4)cc32)CC1 [Example 125, (E)-3-Fluoro-N-(6-(4-(2-hydroxypropan-2-yl)piperidin-1-yl)-1-(cis-4-(isopropylcarbamoyl)cyclohexyl)-1H-imidazo[4,5-c]pyridin-2(3H)-ylidene)benzamide]
11 | < 50 | CC(C)NC(=O)[C@H]1CC[C@@H](n2/c(=N/C(=O)c3ccc(C#N)cc3)[nH]c3cnc(OCCO)cc32)CC1 [Example 126, (E)-4-Cyano-N-(6-(2-hydroxyethoxy)-1-(cis-4-(isopropylcarbamoyl)cyclohexyl)-1H-imidazo[4,5-c]pyridin-2(3H)-ylidene)benzamide]
12 | < 50 | CC(C)NC(=O)[C@H]1CC[C@@H](n2/c(=N/C(=O)c3ccc(F)cc3)[nH]c3cnc(OCCO)cc32)CC1 [Example 127, (E)-4-Fluoro-N-(6-(2-hydroxyethoxy)-1-(cis-4-(isopropylcarbamoyl)cyclohexyl)-1H-imidazo[4,5-c]pyridin-2(3H)-ylidene)benzamide]
13 | < 50 | CC(C)NC(=O)[C@H]1CC[C@@H](n2/c(=N/C(=O)c3ccc(F)cc3)[nH]c3cnc(OCCN4CCC(C(C)(C)O)CC4)cc32)CC1 [Example 128, (E)-4-Fluoro-N-(6-(2-(4-(2-hydroxypropan-2-yl)piperidin-1-yl)ethoxy)-1-(cis-4-(isopropylcarbamoyl)cyclohexyl)-1H-imidazo[4,5-c]pyridin-2(3H)-ylidene)benzamide]
14 | < 50 | CC(C)NC(=O)[C@H]1CC[C@@H](n2/c(=N/C(=O)c3ccc(C#N)cc3)[nH]c3cnc(OCCN4CCC(C(C)(C)O)CC4)cc32)CC1 [Example 129, (E)-4-Cyano-N-(6-(2-(4-(2-hydroxypropan-2-yl)piperidin-1-yl)ethoxy)-1-(cis-4-(isopropylcarbamoyl)cyclohexyl)-1H-imidazo[4,5-c]pyridin-2(3H)-ylidene)benzamide]
15 | 100 to 1000 | C=CCNS(=O)(=O)c1cccc(C(=O)/N=c2\[nH]c3cnc(OCCN4CCCCC4)cc3n2[C@H]2CC[C@H](C(=O)NC(C)C)CC2)c1 [Example 131, (E)-3-(N-Allylsulfamoyl)-N-(1-(trans-4-(isopropylcarbamoyl)cyclohexyl)-6-(2-(piperidin-1-yl)ethoxy)-1H-imidazo[4,5-c]pyridin-2(3H)-ylidene)benzamide]
16 | 100 to 1000 | CC(C)NC(=O)[C@H]1CC[C@@H](n2/c(=N/C(=O)NC3CCCCC3)[nH]c3cnc(OCCN4CCCCC4)cc32)CC1 [Example 132, cis-4-((E)-2-(Cyclohexylcarbamoylimino)-6-(2-(piperidin-1-yl)ethoxy)-2,3-dihydro-1H-imidazo[4,5-c]pyridin-1-yl)-N-isopropylcyclohexanecarboxamide]
17 | 100 to 1000 | CC(C)NC(=O)[C@H]1CC[C@@H](n2/c(=N/C(=O)N3CCOCC3)[nH]c3cnc(OCCN4CCCCC4)cc32)CC1 [Example 133, (E)-N-(1-(cis-4-(Isopropylcarbamoyl)cyclohexyl)-6-(2-(piperidin-1-yl)ethoxy)-1H-imidazo[4,5-c]pyridin-2(3H)-ylidene)morpholine-4-carboxamide]
18 | 50 to 100 | CC(C)NC(=O)[C@H]1CC[C@@H](n2/c(=N/C(=O)N3CCCC3)[nH]c3cnc(OCCN4CCCCC4)cc32)CC1 [Example 134, (E)-N-(1-(cis-4-(Isopropylcarbamoyl)cyclohexyl)-6-(2-(piperidin-1-yl)ethoxy)-1H-imidazo[4,5-c]pyridin-2(3H)-ylidene)pyrrolidine-1-carboxamide]

Same assay, conditions: 2 nM enzyme, ATP 40 μM (Km apparent), 90 minutes at room temperature; mean of three replicates

Row | IC50 [nM] | SMILES
19 | < 50 | CC(C)NC(=O)[C@H]1CC[C@@H](n2/c(=N/C(=O)c3ccc(F)c(Cl)c3)[nH]c3cnc(OCCN4CCCCC4)cc32)CC1 [Example 118, (E)-3-Chloro-4-fluoro-N-(1-(cis-4-(isopropylcarbamoyl)cyclohexyl)-6-(2-(piperidin-1-yl)ethoxy)-1H-imidazo[4,5-c]pyridin-2(3H)-ylidene)benzamide]
